Results taken from patent US11597720B2, “Tetrahydronaphthalene and tetrahydroisoquinoline derivatives as estrogen receptor degraders” (Arvinas Operations, Inc., priority 2016, dated 2023).

Key:
[1] = target: T1, Estrogen receptor-alpha (ERα) (Homo sapiens, UniProt P03372); test: ERα degradation in T47D cells, western blot; assay type: cell-based; set-up: except that T47D cells were utilized instead of the MCF7 cells; endogenous in cells; host or cells: T47D cells; settings: 7 concentrations 100 nM to 0.1 nM, 10% FBS, 72 hours
T1 sequence (P03372 1-595): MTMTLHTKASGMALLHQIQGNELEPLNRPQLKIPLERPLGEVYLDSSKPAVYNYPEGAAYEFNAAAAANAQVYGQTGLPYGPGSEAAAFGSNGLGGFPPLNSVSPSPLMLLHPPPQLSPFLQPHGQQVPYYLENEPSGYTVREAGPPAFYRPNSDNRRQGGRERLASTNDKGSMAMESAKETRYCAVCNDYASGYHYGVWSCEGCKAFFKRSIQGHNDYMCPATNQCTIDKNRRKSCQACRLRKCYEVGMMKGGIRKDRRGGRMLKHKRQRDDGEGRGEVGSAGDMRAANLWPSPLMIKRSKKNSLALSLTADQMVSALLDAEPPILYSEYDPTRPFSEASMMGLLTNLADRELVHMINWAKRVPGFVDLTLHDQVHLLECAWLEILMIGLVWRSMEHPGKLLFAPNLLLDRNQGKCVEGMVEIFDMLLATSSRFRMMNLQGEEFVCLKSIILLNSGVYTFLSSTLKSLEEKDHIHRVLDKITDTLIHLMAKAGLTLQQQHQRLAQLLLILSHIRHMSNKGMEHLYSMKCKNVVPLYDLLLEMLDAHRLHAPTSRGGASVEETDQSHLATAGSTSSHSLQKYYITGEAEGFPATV
Protocol: Compounds prepared in this application were also analyzed for their ability to degrade ERα in MCF7 and T47D cells.
Estrogen receptor-alpha (ERα) degradation assay in T47D cells using western blot method. The same protocol that was described above with MCF7 cells was utilized, except that T47D cells were utilized instead of the MCF7 cells.

[2] = target: T1, Estrogen receptor-alpha (ERα); test: ERα degradation in MCF-7 cells, western blot; assay type: cell-based; set-up: assessed for their activity in degrading ERα in MCF-7 cells via western blot; endogenous in cells; host or cells: MCF7 cells; settings: 10% FBS; for Degradation of ERα in MCF7 cells (immunoblot, FIG. 2): 7 concentrations 100 nM to 0.1 nM, 48 hours
Protocol: FIG. 2 and FIG. 3 illustrate represent exemplary compounds from the western blot assay.
Estrogen receptor-alpha (ERα) degradation assay in MCF-7 cells using western blot method. The exemplary novel ERα degraders were assessed for their activity in degrading ERα in MCF-7 cells via western blot. The assay was carried out in the presence of 10% […] bovine serum (FBS) or high percentage of human or mouse serum.
MCF7 cells were grown in DMEM/F12 with 10% fetal bovine serum and seeded at 24,000 cells per well in 100 μl into 96-well clear tissue culture plates. The following day, the cells were treated with PROTACs in a 7-point concentration curve with 100 nM being the top concentration and serial dilutions to make the other concentrations (30 nM, 10 nM, 3 nM, 1 nM, and 0.3 nM). At all concentrations, 0.01% DMS is the final concentration in the well. […], washed with 50 μl of cold P1BS, The cells are lysed with 50 μl/well 4° (Cell Lysis Buffer (Catalog #9803; Cell Signaling Technology, Danvers, Mass.) (20 mM Tris-HCL (pH 7.5), 150 mM NaCl, 1 mM Na2EDTA, 1 mM EGTA, 1% Triton, 2.5 mM sodium pyrophosphate, 1 mM B-glycerophosphate, 1 mM sodium vanadate, 1 ug/ml leupeptin). Lysates were clarified at 16,000×g for 10 minutes, and 2 μg of protein was subjected to SDS-PAGE analysis and followed by immunoblotting according to standard protocols. The antibodies used were ERα (Cell Signaling Technologies Catalog #8644), and Tubulin (Sigma Catalog #T9026; St Louis, Mo.). Detection reagents were Clarity Western ECL substrate (Bio-Rad Catalog #170-5060; Hercules, Calif.).
Alternatively, MCF7 cells were grown in DMEM/F12 with 10% fetal bovine serum and seeded at 24,000 cells per well in 500 μl in 24-well clear tissue culture plates. The following day, the cells were treated with PROTACs in a 5-point concentration curve (100 nM, 33 nM, 11 nM, 3.7 nM, and 1.2 nM) in the presence of 0.01% DMSO, After 72 hours, the wells are aspirated and washed with 500 μl of PBS. The cells are lysed with 100 μl/well 4° C. […]

| Degradation of ERα in T47D cells (immunoblot, FIG. 4) [1] | Degradation of ERα in MCF7 cells (immunoblot, FIG. 2) [2] | Degradation of ERα in MCF7 cells (immunoblot, FIG. 3) ([2]; 5 concentrations 100 nM to 1.2 nM, 72 hours) | SMILES |
| --- | --- | --- | --- |
| Degradation of ERα | Degradation of ERα |  | Cc1ncsc1-c1ccc(CNC(=O)[C@@H]2C[C@@H](O)CN2C(=O)[C@@H](NC(=O)COCCN2CCN(CCOc3ccc([C@@H]4c5ccc(O)cc5CC[C@@H]4c4ccccc4)cc3)CC2)C(C)(C)C)cc1 [Example 1, (2S,4R)-4-hydroxy-1-[(2S)-2-(2-{2-[4-(2-{4-[(1R,2S)-6-hydroxy-2-phenyl-1,2,3,4-tetrahydronaphthalen-1-yl]phenoxy}ethyl)piperazin-1-yl]ethoxy}acetamido)-3,3-dimethylbutanoyl]-N-{[4-(4-methyl-1,3-thiazol-5-yl)phenyl]methyl}pyrrolidine-2-carboxamide] |
| Degradation of ERα | Degradation of ERα |  | O=C1CCC(N2Cc3cc(N4CCN(CCCCCOc5ccc([C@@H]6c7ccc(O)cc7CC[C@@H]6c6ccccc6)cc5)CC4)ccc3C2=O)C(=O)N1 (stereo partly drawn) [Example 62, 3-{5-[4-(5-{4-[(1R,2S)-6-hydroxy-2-phenyl-1,2,3,4-tetrahydronaphthalen-1-yl]phenoxy}pentyl)piperazin-1-yl]-1-oxo-2,3-dihydro-1H-isoindol-2-yl}piperidine-2,6-dione] |
|  |  | Degradation of ERα | O=C1CCC(N2Cc3cc(N4CCN(CC5CCN(c6ccc([C@@H]7c8ccc(O)cc8CC[C@@H]7c7ccccc7)cc6)CC5)CC4)ccc3C2=O)C(=O)N1 (stereo partly drawn) [Example 341, 3-[5-[4-[[1-[4-[(1R, 2S)-6-hydroxy-2-phenyl-tetralin-1-yl]phenyl]-4-piperidyl]methyl]piperazin-1-yl]-1-oxo-isoindolin-2-yl]piperidine-2,6-dione] |
